The values that follow are results of earlier work, collected in patent US12005094B2, “Inhibitor of inflammatory conditions” (Compton Developments Ltd., priority 2009, dated 2024).

Data set [1] relates to skin edema and hyperplasia. Particulars: topical administration.
The subject of data set [2] is antigen-induced arthritis. Particulars: oral administration.
For another data set, the system named is ear edema. To be noted: topical.
In another data set the test system is EAE. To be noted: Clomipramine vs vehicle control, divergent from day 10.

For `C=C(C)[C@@H]1CC[C@]2(C)CC[C@]3(C)[C@H](CC[C@@H]4[C@@]5(C)CC[C@H](O)C(C)(C)[C@@H]5CC[C@]43C)[C@@H]12` [Lupeol, lupeol], the “skin edema and hyperplasia” value in data set [1] was “significantly inhibited skin edema and hyperplasia”. The “reduction in paw swelling” value in data set [2] is 39%. In the data set on lipoxygenase products, the “effect on lipoxygenase products” value is recorded as “no effect on lipoxygenase products”. In the data set on ear edema, the PGE2 entry was “significant reduction in PGE2”, the ear edema entry was “suppressed ear edema” and the nitrite release entry was “weaker inhibition of nitrite release”.
Consider `CN(C)CCCN1c2ccccc2CCc2ccc(Cl)cc21` [Clomipramine], for which the “onset of disease symptoms (average EAE scores)” value in the data set with EAE is “delayed”.
